Assay results as given in US10813905B2, “Methods of treating sickle cell disease and related disorders using fumaric acid esters” (Augusta University Research Institute, Inc., priority 2012, dated 2020).
Where a name gives a salt, the structure may show the parent alone.

Columns and labels:
[1] = test system: γ-globin promoter; experiment: KU812 dual-luciferase reporter assay of γ-globin promoter activity; format: cell-based, human; details: for concentration of maximal induction of γ-globin promoter activity: 0-1000 μM, 48 h
Source text: (§1) KU812 stable cell lines were created by co-transfecting wild-type KU812 cells with pEGFP-NI (G418 selectable marker) and the μLCRβprRluc AγprFluc dual reporter a kind gifts from Dr. George Stamatoyannopoulos (University of Washington). Briefly, the 315-bp human β-globin gene promoter sequence was inserted upstream of the Renilla along with a polyadenylation signal downstream to create PβprRluc. Likewise, 1.4 kb of human aγ-globin promoter was inserted upstream of firefly luciferase to create AγprFluc. The μLCR (locus control region), PβprRluc, and AγprFluc fragments were subsequently cloned into the mammalian vector, pRL-null. The dual-luciferase reporter lines were produced using 10 μg each of linearized μLCRβprRluc AγprFluc and pEGFP-NI plasmids co-transfected into KU812 cells by electroporation at 260 V, 975 μF (Bio-Rad, Hercules Calif.). After 72 hr, G418 was added at a concentration of 900 μg/μl for 3 days then maintained under selection pressure indefinitely at a concentration of 400 μg/μl. […] FK228 and analogues were screened at concentrations between 1-1000 nM for 48 hr and cell toxicity was monitored by 2% Trypan blue exclusion. The effect of drug treatments on γ-globin and β-globin promoter activity was monitored by luciferase assay.
Luciferase activity was monitored under the different experimental conditions using the Dual Luciferase Assay Reporter System (Promega, Madison, Wis.). The activity of firefly luciferase represents γ-globin promoter activity (γF), while the renilla luciferase is the read-out for β-globin promoter activity (βR). […] After drug treatments, KU812 stable cells were washed with 1× phosphate buffered saline and lysed in 1× Passive Lysis Buffer for 15 min, then protein extracts were added to the Luciferase Assay Reagent II and firefly luciferase activity quantified in a Turner Designs TD-20/20 luminometer (Sunnyvale, Calif.). […] Total protein was determined by Bradford assay on a Beckman DU 640 spectrophotometer (Chaska, Minn.) and luciferase activity was corrected for total protein. […]

[2] = test system: HbF in primary human erythroid cells; experiment: FACS of HbF positive cells in primary human erythroid progenitors; format: cell-based; details: DMF 200 μM, MMF 1000 μM, HU 100 μM
Description: HU (100 μM; Sigma) was included as a positive control and cell viability was monitored by trypan blue exclusion. Findings in KU812 cells were confirmed in human primary erythroid progenitor cells grown in liquid culture using a published protocol. Globin expression was measured by qPCR also as previously published. HbF protein was measured relative to that of isotype control using FITC conjugated anti-human HbF antibody (1:1000; Santa Cruz Biotechnology, Santa Cruz, Calif.) and fluorescence activated cell sorting (see supplemental methods for details). HbF protein expression was confirmed by Western blot analysis using anti-human HbF antibody (1:1000; Bethyl Laboratories, Inc., Montgomery, Tex.) and horseradish peroxidase-conjugated sheep IgG (1:1000; Santa Cruz).
Erythroid progenitors were generated in vitro from adult CD34^+ stem cells ([…] technologies, Inc. Vancouver, Canada) using a 2-stage culture system that achieves terminal erythroid differentiation18. CD34^+ stem cells (500,000) were grown in First medium consisting of Iscove Modified Dulbecco Media containing human AB serum, interleukin-3 (10 ng/mL), stem cell factor (10 ng/mL) and erythropoietin (2 IU/mL). On day 7, the erythroblasts were placed in Second medium with 2 IU/mL erythropoietin for the duration. […] Then cells were harvested for total RNA and protein for qPCR, FACS and western blot analyses.
After drug treatments, 500,000 cells were washed twice with phosphate buffered saline and then fixed in 4% paraformaldehyde and permeated with ice-cold acetone/methanol (4:1). Cells were incubated with anti-γ-globin-FITC antibody (Santa Cruz Biotechnology, Santa Cruz, Calif.) in PBT (PBS/01% BSA/0.1% triton X100) solution for 20 min to stain intracellular HbF antigens. The labeled cells were analyzed by Bectin Dickerson LSR-II flow cytometer (BD Bioscience). All experiments were performed in triplicate.

[3] = test system: small intestinal cell model; details: cited from earlier work
[4] = test system: OCTN1; experiment: OCTN1 mRNA expression in ARPE-19 cells; format: cell-based, human; details: RPE (ARPE-19) cells; MMF 1000 μM, HU 100 μM
Source text: Red blood cells, cells of erythroid lineage, are the primary producers of hemoglobin. […] The includes retinal pigment epithelial (RPE) cells, a cell type critical to normal visual function. […] Data are represented as mean±SEM; *p<0.05.

[5] = test system: γ-globin gene expression in primary RPE cells; experiment: γ-globin/HbF expression in primary RPE cells from humanized mice; format: cell-based, mouse; details: ARPE-19 and primary RPE cells (FIGS. 8B, 8D, 8E, 11)
Description: The effect of MMF on primary RPE cells was also investigated. RPE cells were isolated from the eyes of humanized mice and used to establish primary RPE cell cultures. […] Primary RPE cells were cultured in the presence or absence of MMF at concentrations ranging from 0-1000 μM for a period of 9 hours. Total RNA was prepared and γ-globin gene expression analyzed by qPCR. […] Data are represented as mean±SEM; *P<0.01, **P<0.001.
Identical experiments were performed using the human RPE cell line ARPE-19, an established model for the study of RPE19, and primary RPE cell cultures established from the eyes of HbAA- and HbSS-expressing Townes humanized knock-in SCD mice (Jackson Laboratories, Bar Harbor, Me.) per our published method. Additionally, MMF (1 mM final concentration) or PBS (control) was injected intravitreally into the eyes of HbAA and HbSS mice and retinal γ-globin and HbF expression analyzed by qPCR and immunofluorescence 24 h post-injection. Animal studies were approved by the Georgia Regents University Institutional Committee for Animal Use in Research and Education.
HbF protein production in ARPE-19 cells exposed to MMF (1000 μM) for 24 h was evaluated using a FITC-conjugated HbF antibody and fluorescence microscopy (data not shown). Cell nuclei were counterstained with DAPI. […]

[6] = test system: γ/β-globin mRNA in primary human erythroid cells; experiment: γ/β-globin mRNA by qPCR in primary human erythroid progenitors; format: cell-based; details: DMF 200 μM, MMF 1000 μM
Description: HU (100 μM; Sigma) was included as a positive control and cell viability was monitored by trypan blue exclusion. Findings in KU812 cells were confirmed in human primary erythroid progenitor cells grown in liquid culture using a published protocol. Globin expression was measured by qPCR also as previously published. HbF protein was measured relative to that of isotype control using FITC conjugated anti-human HbF antibody (1:1000; Santa Cruz Biotechnology, Santa Cruz, Calif.) and fluorescence activated cell sorting (see supplemental methods for details). HbF protein expression was confirmed by Western blot analysis using anti-human HbF antibody (1:1000; Bethyl Laboratories, Inc., Montgomery, Tex.) and horseradish peroxidase-conjugated sheep IgG (1:1000; Santa Cruz). Erythroid progenitors were generated in vitro from adult CD34^+ stem cells ([…] technologies, Inc. Vancouver, Canada) using a 2-stage culture system that achieves terminal erythroid differentiation18. CD34^+ stem cells (500,000) were grown in First medium consisting of Iscove Modified Dulbecco Media containing human AB serum, interleukin-3 (10 ng/mL), stem cell factor (10 ng/mL) and erythropoietin (2 IU/mL). On day 7, the erythroblasts were placed in Second medium with 2 IU/mL erythropoietin for the duration. […] Then cells were harvested for total RNA and protein for qPCR, FACS and western blot analyses.

[7] = test system: γ-globin gene expression in KU812 cells; experiment: γ-globin gene expression by qPCR in KU812 cells; format: cell-based, human; details: 100 μM, depending upon the incubation time (3-24 h)
Description: KU812 cells were cultured in the presence or absence of MMF for time periods ranging from 0-24 hours and evaluated for changes in γ-globin gene expression relative to 18S ribosomal RNA expression (internal experimental control) by qPCR (FIG. 1). In comparison to control, untreated (UT) cells, significant increases in γ-globin gene expression were observed as early as 3 hours post-incubation with low-does (100 μM) MMF treatment. This MMF-induced increase in γ-globin expression persisted up to 24 h post-exposure to the compound. Data in FIG. 1 are represented as means±standard error of the mean (SEM); *P<0.05, **P<0.01 and ***P<0.001.
FIG. 2 is reproduced from MaKala et al., Anemia, Volume 2012, Article ID 428137) (2012). […] At 100 μM, the same concentration that we used for MMF, HU induces γ-globin gene expression ˜2-fold.

[8] = test system: KU812 cells; format: cell-based; details: human, 48 h
Source text: as §1, with “pRL-null.” for “pRL-null. The dual-luciferase reporter lines were produced using 10 μg each of linearized μLCRβprRluc AγprFluc and pEGFP-NI plasmids co-transfected into KU812 cells by electroporation at 260 V, 975 μF (Bio-Rad, Hercules Calif.). After 72 hr, G418 was added at a concentration of 900 μg/μl for 3 days then maintained under selection pressure indefinitely at a concentration of 400 μg/μl.”
Luciferase activity, an indicator of γ-globin promoter induction, was monitored KU812 μLCRβprRlucγprFluc—stable cells cultured in the presence of absence (untreated control, UT) of MMF at varying dosages for 48 hour according to the method discussed above and in MaKala et al., Anemia, Volume 2012, Article ID 428137) (2012).
HU (100 μM; Sigma) was included as a positive control and cell viability was monitored by trypan blue exclusion. […] Globin expression was measured by qPCR also as previously published. […]

[9] = single doses, healthy adults, cited from earlier work

**Q.** What does the source list for `COC(=O)/C=C/C(=O)OC` [DMF, dimethyl fumarate]?
**A.** concentration of maximal induction of γ-globin promoter activity [1]: 200 µM; effectiveness as inducer of γ-globin promoter activity at higher concentrations ([1]; concentrations higher than 100-200 μM): declined substantially; increase in HbF positive cells (FACS) [2]: 28 fold; permeability ([3]; in vitro small intestinal cell model): high permeability; metabolism in the intestinal tissue ([3]; intestinal tissue): complete metabolism

**Q.** Which OCTN1 expression [4] does the source give for `NC(=O)NO` [HU, hydroxyurea] here?
**A.** Its OCTN1 expression is “little to no effect”.

**Q.** And the “increase in HbF positive cells (FACS)” value [2]?
**A.** The value was 15 fold.

**Q.** And the “γ-globin expression and HbF production in RPE cells” value [5]?
**A.** Its value is “induction of γ-globin expression and HbF production”.

**Q.** For `COC(=O)/C=C/C(=O)O` [MMF, monomethyl fumarate], which “γ/β-globin mRNA induction” value [6] is on record?
**A.** The value was 8 fold.

**Q.** What about the “γ-globin gene expression, fold increase vs untreated” value [7] of the same compound?
**A.** Its value is 2-4 fold.

**Q.** And the “concentration of maximal induction of γ-globin promoter activity” value [1]?
**A.** Its value is 1000 µM.

**Q.** What about the “increase in HbF positive cells (FACS)” value [2] of the same compound?
**A.** Its value is 32 fold.

**Q.** And the “Cell viability by Trypan blue exclusion” value [8]?
**A.** The value was 90-95%.

**Q.** For `CCN(CC)C(=O)COC(=O)/C=C/C(=O)OC` [XP23829], which tolerability ([9]; four oral formulations) is on record?
**A.** Its tolerability is “generally well-tolerated”.

**Q.** What about the “levels of MMF in the blood” value [9] of the same compound?
**A.** Its value is “expected levels of MMF in the blood”.
